In patent publication US5621010A, “Urea derivatives and their use as ACAT inhibitors” (Nisshin Flour Milling Co., Ltd., priority 1993, dated 1997):

How the values were obtained:
[1] = system: ACAT (liver microsome fractions of male rabbits); assay: ACAT inhibitory activity: formation of labelled cholesteryl esters from [1-14C]oleoyl-CoA and endogenous cholesterol; type: biochemical, rabbit; details: compound added at 10^-7 M
Procedure: The enzyme preparation, ACAT was prepared from liver microsme fractions of male rabbits according to the method of E. E. Largis et al. (Journal of Lipid Research, Vol. 30, pages 681-690, 1989). The activity was calculated by assaying the amount of the labelled cholesteryl esters formed from [1-^14 C]oleoyl-CoA and endogenous cholesterol according to the method of Kazuichi NATORI et al. (Japan J. Pharmacol., Vol. 42, pages 517-523, 1986).
The result is shown in Table 1, in which percent inhibition of the formation of the labelled cholesteryl esters with a compound added at 10^-7 M is indicated as index for the ACAT inhibitory activity.

Human LDL = assay: Antioxidative activity: inhibition of MDA formation from LDL incubated with cupric sulfate; type: biochemical; details: compound 10^-5 M; cupric sulfate 5×10^-6 M; 5 hrs; compared with control
Procedure: Human LDL was incubated in the presence of cupric sulfate (5×10^-6 M) and in the presence or absence of a compound (10^-5 M) for 5 hrs. After the incubation, the peroxidation of low-density lipoproteins (LDL) is evaluated by the formation of malondialdehyde (MDA), which is a sort of lipid peroxides according to the method of Simon J. T. Mao et al. (J. Med. Chem., Vol. 34, pages 298-302, 1991). Activity of the compound is shown by percent inhibition of the MDA formation as compared with control.

Compound	ACAT Inhibition [1]	Antioxidant Activity (percent inhibition of the MDA formation) (Human LDL)
CC(C)(C)c1cc(/C=C/c2ccccc2NC(=O)N2CCC[C@H]3CCCC[C@H]32)cc(C(C)(C)C)c1O (relative stereo) [Example 159]	97%	
CC(C)(C)c1cc(CCc2cc(F)cc(F)c2NC(=O)N2CCC[C@H]3CCCC[C@H]32)cc(C(C)(C)C)c1O (relative stereo) [Example 166]	100%	
CCCCCCOc1ccc(NC(=O)Nc2ccccc2CCc2cc(C(C)(C)C)c(O)c(C(C)(C)C)c2)cc1 [Example 1, N-[2-(3,5-di-tert-butyl-4-hydroxyphenethyl)phenyl]-N'-(4-hexyloxyphenyl)urea]	83%	94%
CC(C)(C)c1cc(CCc2ccccc2NC(=O)NC2CCCCCC2)cc(C(C)(C)C)c1O [Example 4, N-[2-(3,5-di-tert-butyl-4-hydroxyphenethyl)phenyl]-N'-cycloheptylurea]	95%	98%
CC(C)(C)c1cc(CCc2ccccc2NC(=O)NCCc2ccccc2)cc(C(C)(C)C)c1O [Example 5, N-[2-(3,5-di-tert-butyl-4-hydroxyphenethyl)phenyl]-N'-phenethylurea]	89%	100%
CC(C)(C)c1cc(CCc2ccccc2NC(=O)NCC(c2ccccc2)c2ccccc2)cc(C(C)(C)C)c1O [Example 6, N-[2-(3,5-di-tert-butyl-4-hydroxyphenethyl)phenyl]-N'-(2,2-diphenylethyl)urea]	99%	98%
CCCCCCCNC(=O)Nc1ccccc1CCc1cc(C(C)(C)C)c(O)c(C(C)(C)C)c1 [Example 12, N-[2-(3,5-di-tert-butyl-4-hydroxyphenethyl)phenyl]-N'-heptylurea]	91%	94%
CC(C)=CCCC(C)=CCNC(=O)Nc1ccccc1CCc1cc(C(C)(C)C)c(O)c(C(C)(C)C)c1 [Example 13, N-[2-(3,5-di-tert-butyl-4-hydroxyphenethyl)phenyl]-N'-(3,7-dimethyl-2,6-octadienyl)urea]	90%	92%
CC(C)(C)CC(C)(C)NC(=O)Nc1ccccc1CCc1cc(C(C)(C)C)c(O)c(C(C)(C)C)c1 [Example 14, N-[2-(3,5-di-tert-butyl-4-hydroxyphenethyl)phenyl]-N'-(2,4,4-trimethyl-2-pentyl)urea]	93%	98%
CCOCCCNC(=O)Nc1ccccc1CCc1cc(C(C)(C)C)c(O)c(C(C)(C)C)c1 [Example 15, N-[2-(3,5-di-tert-butyl-4-hydroxyphenethyl)phenyl]-N'-(3-ethoxypropyl)urea]	76%	99%
CC(C)(C)c1cc(CCc2ccccc2NC(=O)NC2CCCC2)cc(C(C)(C)C)c1O [Example 16, N-[2-(3,5-di-tert-butyl-4-hydroxyphenethyl)phenyl]-N'-cyclopentylurea]	93%	95%
CC(C)(C)c1cc(CCc2ccccc2NC(=O)NC2CCCCC2)cc(C(C)(C)C)c1O [Example 17, N-[2-(3,5-di-tert-butyl-4-hydroxyphenethyl)phenyl]-N'-cyclohexylurea]	92%	99%
CC(C)(C)c1cc(CCc2ccccc2NC(=O)NC2CCCCCCC2)cc(C(C)(C)C)c1O [Example 18, N-[2-(3,5-di-tert-butyl-4-hydroxyphenethyl)phenyl]-N'-cyclooctylurea]	97%	97%
CC(C)(C)c1cc(CCc2ccccc2NC(=O)NC(c2ccccc2)c2ccccc2)cc(C(C)(C)C)c1O [Example 29, N-[2-(3,5-di-tert-butyl-4-hydroxyphenethyl)phenyl]-N'-diphenylmethylurea]	99%	95%
CC(C)(C)c1cc(CCc2ccccc2NC(=O)NCC(C)(C)c2ccc(F)cc2)cc(C(C)(C)C)c1O [Example 140, N-[2-(3,5-di-tert-butyl-4-hydroxyphenethyl)phenyl]-N'-[2-(4-fluorophenyl)-2-methylpropyl]urea]	96%	
CC(C)(C)c1cc(CCc2ccccc2NC(=O)NCC(C)(C)c2ccc(N3CCCC3)cc2)cc(C(C)(C)C)c1O [Example 141, N-[2-(3,5-di-tert-butyl-4-hydroxyphenethyl)phenyl]-N'-[2-[4-(1-pyrrolidinyl)phenyl]-2-methylpropyl]urea]	86%	
CCCN(C(=O)Nc1ccccc1CCc1cc(C(C)(C)C)c(O)c(C(C)(C)C)c1)C1CCN(Cc2ccccc2)CC1 [Example 146, N-[2-(3,5-di-tert-butyl-4-hydroxyphenethyl)phenyl]-N'-(1-benzyl-4-piperidyl)-N'-propylurea]	85%	
CC(C)(C)c1cc(CCc2c(F)cccc2NC(=O)NC2CCN(Cc3ccccc3)CC2)cc(C(C)(C)C)c1O [Example 155, N-[2-(3,5-di-tert-butyl-4-hydroxyphenethyl)-3-fluorophenyl]-N'-(1-benzyl-4-piperidyl)urea]	94%	
COc1cccc(CCc2cc(C(C)(C)C)c(O)c(C(C)(C)C)c2)c1NC(=O)NC1CCN(Cc2ccccc2)CC1 [Example 163, N-[2-(3,5-di-tert-butyl-4-hydroxyphenethyl)-6-methoxyphenyl]-N'-(1-benzyl-4-piperidyl)urea]	81%	
CN(C(=O)Nc1c(F)cc(F)cc1CCc1cc(C(C)(C)C)c(O)c(C(C)(C)C)c1)C1CCN(Cc2ccccc2)CC1 [Example 165, N-[2-(3,5-di-tert-butyl-4-hydroxyphenethyl)-4,6-difluorophenyl]-N'-(1-benzyl-4-piperidyl)-N'-methylurea]	99%	
CC(C)(C)c1cc(CCc2cc(F)cc(F)c2NC(=O)NC2CCN(Cc3ccccc3)CC2)cc(C(C)(C)C)c1O.Cl [Example 167, N-[2-(3,5-di-tert-butyl-4-hydroxyphenethyl)-4,6-difluorophenyl]-N'-(1-benzyl-4-piperidyl)urea hydrochloride]	100%	
Cc1cccc(CCc2cc(C(C)(C)C)c(O)c(C(C)(C)C)c2)c1NC(=O)NC1CCN(Cc2ccccc2)CC1 [Example 168, N-[2-(3,5-di-tert-butyl-4-hydroxyphenethyl)-6-methylphenyl]-N'-(1-benzyl-4-piperidyl)urea]	93%	
CC(C)(C)c1cc(CCc2ccccc2NC(=O)N[C@H](C(=O)OCc2ccccc2)c2ccccc2)cc(C(C)(C)C)c1O [Example 173, (S)-N-[2-(3,5-di-tert-butyl-4-hydroxyphenethyl)phenyl]-N'-(α-benzyloxycarbonyl)benzylurea]	95%	
CC1(C)CCCN(C(=O)Nc2ccccc2CCc2cc(C(C)(C)C)c(O)c(C(C)(C)C)c2)C1 [Example 177, 1-[N-[2-(3,5-di-tert-butyl-4-hydroxyphenethyl)phenyl]carbamoyl]-3,3-dimethylpiperidine]	98%	
CC(C)(C)c1cc(CCc2ccc(Cl)cc2NC(=O)NC2CCN(Cc3ccccc3)CC2)cc(C(C)(C)C)c1O [Example 183, N-[2-(3,5-di-tert-butyl-4-hydroxyphenethyl)-5-chlorophenyl]-N'-(1-benzyl-4-piperidyl)urea]	91%	
